Series [1] has as its system P388.
Description: Maximum tolerated dose was determined against P338 tumor in mice after intraperitoneal administration daily for 7 days
For series [2], the system named is P388. The source holds these as a separate data set.
Description: Increase in life span of the treated mice to those of control was determined
The species named for series [3] is Mus musculus.
Description: Percentage of compound bound to serum protein was determined
The test system of series [4] is Mus musculus. Kind of series: Half life after intraperitoneal administration in mice at 25 uM/kg. The class given is functional, organism-based.
Series [5] concerns Mus musculus. Kind of series: Tmax in mice at 25 uM/kg i.p. administration. The class given is functional, organism-based.
In series [6] the test system is Mus musculus. The experiment in a line: Area under curve was determined for compound after intraperitoneal administration in mice at 25 uM/kg. The class given is functional, organism-based.
In series [7] the test system is Mus musculus. Kind of series: Mean-residence time was determined for compound after intraperitoneal administration in mice at 25 uM/kg. The class given is functional, organism-based.
Series [8] in a line: Cmax in mice at 24 umol/kg i.p. administration. The class given is ADME, organism-based. Set-up: dose 24 umol/kg, route intraperitoneal. The conditions noted are these: mouse, in vivo, ip.
Series [9] is described as follows: Cmax in mice at 25 umol/kg i.p. administration. The class given is ADME, organism-based. The conditions noted are these: mouse, in vivo, ip. More on the design: dose 25 umol/kg, route intraperitoneal.
The target in series [10] is Cyclin-dependent kinase 2/cyclin E (Homo sapiens, UniProt P24941).
For series [11], the system named is Mus musculus. The experiment in a line: Tmax in mice at 18 uM/kg i.p. administration. The class given is functional, organism-based.
The test system of series [12] is Mus musculus. The experiment in a line: Area under curve was determined for compound after intraperitoneal administration in mice at 18 uM/kg. The class given is functional, organism-based.
Series [13] is filed under the species Mus musculus. The source holds these as a separate data set.
Description: Maximum tolerated dose in A2780 tumor in mice after intraperitoneal administration daily for 8 days
A short description of series [14]: Cmax in mice at 18 umol/kg i.p. administration. The conditions noted are these: mouse, in vivo, ip. The class given is ADME, organism-based. Set-up: dose 18 umol/kg, route intraperitoneal.
For series [15], the system named is Mus musculus. Kind of series: Half life after intraperitoneal administration in mice at 18 uM/kg. The class given is functional, organism-based.
For series [16], the system named is Mus musculus. Kind of series: Mean-residence time was determined for compound after intraperitoneal administration in mice at 18 uM/kg. The class given is functional, organism-based.
For series [17], the species on record is Mus musculus. The experiment in a line: Log cell kill for A2780 tumor in mice. The class given is functional.
The subject of series [18] is Mus musculus. The experiment in a line: Microsomal stability was determined in mouse liver microsomes after intraperitoneal administration in mice at 18 uM/kg. The class given is functional. In general terms: Liver microsomes are vesicles of endoplasmic reticulum, rich in cytochrome P450 enzymes.
Series [19] deals with Mus musculus. Kind of series: Area under curve was determined for compound after intraperitoneal administration in mice at 26 uM/kg. The class given is functional, organism-based.
A short description of series [20]: Cmax in mice at 26 umol/kg i.p. administration. The note with it: mouse, in vivo, ip. The class given is ADME, organism-based. Set-up: dose 26 umol/kg, route intraperitoneal.
The subject of series [21] is Mus musculus. Kind of series: Half life after intraperitoneal administration in mice at 26 uM/kg. The class given is functional, organism-based.
Series [22] has as its system Mus musculus. The experiment in a line: Mean-residence time was determined for compound after intraperitoneal administration in mice at 26 uM/kg. The class given is functional, organism-based.
Series [23] concerns Mus musculus. The experiment in a line: Tmax in mice at 23 uM/kg i.v. administration. The class given is functional, organism-based.
Series [24] is filed under the species Mus musculus. The experiment in a line: Log cell kill for A2780 tumor in mice; […]. The class given is functional.
The test system of series [25] is Mus musculus. The experiment in a line: Mean-residence time was determined for compound intravenous administration in mice at 23 uM/kg. The class given is functional, organism-based.
The next series in a line: in vivo. The conditions noted are these: mouse, iv, 23 umol/kg.
Series [26] deals with Mus musculus. Kind of series: Microsomal stability was determined in mouse liver microsomes after intravenous administration in mice at 23 uM/kg. The class given is functional.
Series [27] deals with Mus musculus. Kind of series: Half life after intravenous administration in mice at 23 uM/kg. The class given is functional, organism-based.

Each structure is given as a SMILES string.

In general, Cmax refers to the peak of the concentration-time curve. The term IC50 denotes the point on the concentration scale where inhibition reaches its midpoint. Lower therefore signals greater potency.

Description for in vivo: Cmax in mice at 23 umol/kg i.v. administration

Consider `CC(C)(C)c1cnc(CSc2cnc(NC(=O)C3CCN(CCO)CC3)s2)o1`, for which, in the series on P388 [1], the MTD was found to be 22.5 mg/kg. For the same compound, in the series on P388 [2], the Survival worked out at 140%. Further, in the series filed under Mus musculus [3], the Binding turned out to be 75%. The T1/2 in the series with Mus musculus [4] was determined as 1.9 h. The Tmax in the series on Mus musculus [5] amounted to 0.5 h. Besides, the AUC in the series with Mus musculus [6] is 764 ng·h/mL. In the series on Mus musculus [7], this compound returned an MRT of 2.4 h. For the same compound, the highest level in series [8] (Cmax) was 1100 nM.
`CC(C)(C)c1cnc(CSc2cnc(NC(=O)C3CCN(S(C)(=O)=O)CC3)s2)o1` yielded a Binding in the series listed under Mus musculus [3] of 84%.
The compound `CC(C)(C)OC(=O)N1CCC(C(=O)Nc2ncc(SCc3ncc(C(C)(C)C)o3)s2)CC1` registered a Binding in the series filed under Mus musculus [3] of 99%.
Compound `CN1CCC(C(=O)Nc2ncc(SCc3ncc(C(C)(C)C)o3)s2)CC1` returned a Binding in the series filed under Mus musculus [3] of 75%. Moreover, in the series with Mus musculus [4], the T1/2 was 0.7 h. Further, the Tmax in the series on Mus musculus [5] worked out at 0.5 h. Also, in the series with Mus musculus [6], the AUC is 473 ng·h/mL. The same compound yielded a Cmax in series [9] of 1100 nM. The compound also came in with an MRT in the series with Mus musculus [7] of 1.1 h.
The compound `CC(C)(C)c1cnc(CSc2cnc(NC(=O)[C@H]3CC[C@H](N)CC3)s2)o1` gave a Binding in the series filed under Mus musculus [3] of 86%.
The compound `CC(C)(C)c1cnc(CSc2cnc(NC(=O)Cc3ccccc3)s2)o1` had an IC50 in series [10] of 3 µM.
On the same count and under the same terms, the value for `CC(C)(C)c1cnc(CSc2cnc(NC(=O)C3CCCCC3)s2)o1` was 300 µM.
In the series filed under Mus musculus [3], `CC(=O)Nc1ncc(SCc2ncc(C(C)(C)C)o2)s1` displayed a Binding of 83%. In addition, in series [10], inhibition was half-maximal at 5 µM (IC50).
On to `CC(C)(C)c1cnc(CSc2cnc(NC(=O)Cc3ccc(CNC(CO)CO)cc3)s2)o1`, for which the Tmax with Mus musculus [11] was 1 h. Moreover, the MTD in the series on P388 [1] turned out to be 32 mg/kg; in the series listed under Mus musculus [13], 26 mg/kg. In addition, the AUC in the series with Mus musculus [12] was 1320 ng·h/mL. Besides, the Survival in the series on P388 [2] is listed as 140%. For the same compound, in the series listed under Mus musculus [3], the Binding was 79%. In series [14], this compound came in with a Cmax of 800 nM. Besides, the T1/2 in the series on Mus musculus [15] was 1.8 h. Further, the MRT in the series with Mus musculus [16] was 2.9 h. In addition, in the series listed under Mus musculus [17], the LCK is 3.3. In the series on Mus musculus [18], the Activity is 0.22 nM min-1 (mg of protein)-1.
On to `CC(C)(C)c1cnc(CSc2cnc(NC(=O)C3CCCNC3)s2)o1` (configuration not stated), for which the MTD was found to be 20 mg/kg in the series on P388 [1] and 22 mg/kg in the series filed under Mus musculus [13]. In the series with Mus musculus [19], the AUC was determined as 4600 ng·h/mL. This compound yielded a Survival in the series with P388 [2] of 152%. Further, the Binding in the series listed under Mus musculus [3] is listed as 82%. Moreover, the Cmax in series [20] was found to be 3500 nM. The T1/2 in the series with Mus musculus [21] turned out to be 2.2 h. This compound also came in with an LCK in the series filed under Mus musculus [17] of 1.6. For the same compound, the MRT in the series with Mus musculus [22] was 3.5 h.
On to `CC(C)(C)c1cnc(CSc2cnc(NC(=O)[C@H]3CC[C@@H](N)CC3)s2)o1`, for which the Tmax with Mus musculus [23] came to 6 min. Also, the MTD in the series on P388 [1] and in the series filed under Mus musculus [13] was 8 mg/kg in each case. The compound also had an AUC with Mus musculus [12] of 4660 ng·h/mL. In the series with P388 [2], this compound registered a Survival of 179%. In the series listed under Mus musculus [24], the LCK was 1.7. In addition, the Binding in the series listed under Mus musculus [3] turned out to be 68%. For the same compound, the MRT in the series on Mus musculus [25] is 2.2 h. In “in vivo”, the Cmax worked out at 13600 nM. Moreover, in the series on Mus musculus [26], the Activity is recorded as 0.07 nM min-1 (mg of protein)-1. In addition, in the series on Mus musculus [27], the T1/2 was 2.2 h.
